Assay results published in US10844074B2, “Heterocycle compounds and uses thereof” (ZHEJIANG JIANFENG-YIEN BIOTECHNOLOGY CO., LTD., priority 2015, dated 2020).

Tests used:
EGFR T790M = EGFR T790M (Homo sapiens, UniProt P00533, T790M); assay: EGFR Enzyme Assay; format: biochemical; conditions: 1 uM compound, read-out: T790M (% inh @ 1 uM)
Method: The following TABLE III lists compounds representative of the invention and their activity in EGFR assays. In these assays, the following grading was used: A: >50% @1 μM; B: <50% @ 1 μM.

BTK = BTK (Homo sapiens, UniProt Q06187); assay: BTK Enzyme Assay; format: biochemical; conditions: 1 uM compound; read-out: BTK (% inh @ 1 uM)
Method: The following TABLE II lists compounds representative of the invention and their activity in BTK assays. In these assays, the following grading was used: A: >30% inhibition @1 μM; B: <30% inhibition @1 μM.

Chain of BTK (Q06187 whole entry): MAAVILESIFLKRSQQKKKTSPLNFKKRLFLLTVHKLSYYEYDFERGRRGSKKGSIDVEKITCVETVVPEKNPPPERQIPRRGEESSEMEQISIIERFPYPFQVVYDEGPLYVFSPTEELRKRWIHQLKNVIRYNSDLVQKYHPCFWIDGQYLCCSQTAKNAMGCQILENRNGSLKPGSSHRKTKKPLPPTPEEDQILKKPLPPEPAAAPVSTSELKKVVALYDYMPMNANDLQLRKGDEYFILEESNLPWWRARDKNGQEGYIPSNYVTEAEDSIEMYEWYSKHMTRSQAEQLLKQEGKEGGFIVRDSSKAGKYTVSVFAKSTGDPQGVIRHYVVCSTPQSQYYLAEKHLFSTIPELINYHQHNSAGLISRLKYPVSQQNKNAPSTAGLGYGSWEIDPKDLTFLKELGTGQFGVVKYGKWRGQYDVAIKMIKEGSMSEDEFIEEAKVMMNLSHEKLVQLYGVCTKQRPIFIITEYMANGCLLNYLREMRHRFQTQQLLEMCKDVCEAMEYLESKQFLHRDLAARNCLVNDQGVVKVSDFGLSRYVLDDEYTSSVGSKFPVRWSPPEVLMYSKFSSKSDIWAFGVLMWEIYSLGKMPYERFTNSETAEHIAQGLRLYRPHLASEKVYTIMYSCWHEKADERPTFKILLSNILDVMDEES
Chain of EGFR T790M (P00533 25-1210 T790M): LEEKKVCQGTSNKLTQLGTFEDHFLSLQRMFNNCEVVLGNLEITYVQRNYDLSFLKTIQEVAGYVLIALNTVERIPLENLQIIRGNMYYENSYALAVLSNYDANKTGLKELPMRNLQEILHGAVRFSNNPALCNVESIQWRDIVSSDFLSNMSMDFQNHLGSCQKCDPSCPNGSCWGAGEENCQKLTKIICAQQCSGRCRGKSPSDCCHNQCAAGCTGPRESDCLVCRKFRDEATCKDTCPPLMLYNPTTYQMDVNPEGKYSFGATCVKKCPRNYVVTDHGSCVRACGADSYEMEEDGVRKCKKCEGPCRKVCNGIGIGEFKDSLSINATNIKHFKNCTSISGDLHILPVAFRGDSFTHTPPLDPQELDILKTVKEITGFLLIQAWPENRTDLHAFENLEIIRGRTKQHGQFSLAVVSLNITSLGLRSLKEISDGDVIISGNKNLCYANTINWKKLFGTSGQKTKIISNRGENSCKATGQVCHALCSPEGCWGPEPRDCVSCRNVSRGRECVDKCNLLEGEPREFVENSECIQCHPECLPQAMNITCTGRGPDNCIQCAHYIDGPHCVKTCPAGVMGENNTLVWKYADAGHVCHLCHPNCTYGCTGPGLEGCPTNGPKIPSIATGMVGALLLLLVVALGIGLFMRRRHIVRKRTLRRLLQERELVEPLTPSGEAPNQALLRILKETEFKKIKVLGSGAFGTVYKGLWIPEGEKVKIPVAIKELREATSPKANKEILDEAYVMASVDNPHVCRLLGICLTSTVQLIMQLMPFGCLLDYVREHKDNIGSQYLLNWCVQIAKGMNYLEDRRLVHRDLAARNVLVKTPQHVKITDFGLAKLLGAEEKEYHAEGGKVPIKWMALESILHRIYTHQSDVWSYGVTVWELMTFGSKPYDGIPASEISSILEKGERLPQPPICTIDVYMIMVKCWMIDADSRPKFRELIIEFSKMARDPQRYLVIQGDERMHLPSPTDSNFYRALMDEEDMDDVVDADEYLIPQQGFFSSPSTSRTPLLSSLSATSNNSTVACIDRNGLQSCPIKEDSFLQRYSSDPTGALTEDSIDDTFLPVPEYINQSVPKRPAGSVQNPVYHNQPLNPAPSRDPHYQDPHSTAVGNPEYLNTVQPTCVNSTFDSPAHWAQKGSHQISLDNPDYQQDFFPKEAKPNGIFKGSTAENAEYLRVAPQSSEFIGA

Row | inhibition at 1 µM (EGFR T790M) [%] | inhibition at 1 µM (BTK) [%] | SMILES
1 | > 50 | > 30 | C=CC(=O)Nc1cc(NC2=NC(c3cccc(N(C)C)c3)C3SC=CC3=N2)c(OC)cc1N1CCOCC1 (stereo not drawn) [Compound 10, N-[5-[[4-[3-(dimethylamino)phenyl]-4,4a-dihydrothieno[3,2-d]pyrimidin-2-yl]amino]-4-methoxy-2-morpholino-phenyl]prop-2-enamide]
2 | < 50 | < 30 | C=CC(=O)Nc1cc(N(C)c2nc(-c3cn(C)c4ccccc34)c3sccc3n2)c(OC)cc1N1CCOCC1 [Compound 52, N-[4-methoxy-5-[methyl-[4-(1-methylindol-3-yl)thieno[3,2-d]pyrimidin-2-yl]amino]-2-morpholino-phenyl]prop-2-enamide]
3 | > 50 | > 30 | C=CC(=O)Nc1cc(Nc2nc(-c3ccc(NC)cc3)c3sccc3n2)c(OC)cc1N1CCOCC1 [Compound 37, N-[4-methoxy-5-[[4-[4-(methylamino)phenyl]thieno[3,2-d]pyrimidin-2-yl]amino]-2-morpholino-phenyl]prop-2-enamide]
4 | > 50 | < 30 | C=CC(=O)Nc1cc(Nc2nc(-c3cccc(NC)c3)c3sccc3n2)c(OC)cc1OCCN1CCOCC1 [Compound 35, N-[4-methoxy-5-[[4-[3-(methylamino)phenyl]thieno[3,2-d]pyrimidin-2-yl]amino]-2-(2-morpholinoethoxy)phenyl]prop-2-enamide]
5 | > 50 | > 30 | C=CC(=O)Nc1cc(NC2=NC(c3cccc(NC(C)(C)C)c3)C3SC=CC3=N2)c(OC)cc1N(C)C (stereo not drawn) [Compound 5, N-[5-[[4-[3-(tert-butylamino)phenyl]-4,4a-dihydrothieno[3,2-d]pyrimidin-2-yl]amino]-2-(dimethylamino)-4-methoxy-phenyl]prop-2-enamide]
6 | > 50 | > 30 | C=CC(=O)Nc1cc(Nc2nc(-c3c[nH]c4ccccc34)c3sccc3n2)c(OC)cc1N(C)CCN(C)C [Compound 1, N-[2-[2-(dimethylamino)ethyl-methyl-amino]-5-[[4-(1H-indol-3-yl)thieno[3,2-d]pyrimidin-2-yl]amino]-4-methoxy-phenyl]prop-2-enamide]
7 | > 50 | > 30 | C=CC(=O)Nc1cc(Nc2nc(-c3cccc(NC)c3)c3ccsc3n2)c(OC)cc1N(C)CC [Compound 41, N-[2-[ethyl(methyl)amino]-4-methoxy-5-[[4-[3-(methylamino)phenyl]thieno[2,3-d]pyrimidin-2-yl]amino]phenyl]prop-2-enamide]
8 | > 50 | < 30 | C=CC(=O)Nc1cc(NC2=NC(c3ccccc3)C3SC=CC3=N2)c(OC)cc1N1CCN(C)CC1 (stereo not drawn) [Compound 18, N-[4-methoxy-2-(4-methylpiperazin-1-yl)-5-[(4-phenyl-4,4a-dihydrothieno[3,2-d]pyrimidin-2-yl)amino]phenyl]prop-2-enamide]
9 | < 50 | > 30 | C=CC(=O)Nc1cc(Nc2nc(-c3ccccc3)c3sccc3n2)c(OC)cc1N1CCN(C)CC1 [Compound 26, N-[4-methoxy-2-(4-methylpiperazin-1-yl)-5-[(4-phenylthieno[3,2-d]pyrimidin-2-yl)amino]phenyl]prop-2-enamide]
10 | < 50 | > 30 | C=CC(=O)Nc1cc(NC2=NC(c3cccc(N(C)C)c3)C3SC=CC3=N2)c(OC)cc1N1CCN(C)CC1 (stereo not drawn) [Compound 6, N-[5-[[4-[3-(dimethylamino)phenyl]-4,4a-dihydrothieno[3,2-d]pyrimidin-2-yl]amino]-4-methoxy-2-(4-methylpiperazin-1-yl)phenyl]prop-2-enamide]
11 | < 50 | > 30 | C=CC(=O)Nc1cc(Nc2nc(-c3ccccc3N(C)C)c3ccsc3n2)c(OC)cc1N1CCN(C)CC1 [Compound 50, N-[5-[[4-[2-(dimethylamino)phenyl]thieno[2,3-d]pyrimidin-2-yl]amino]-4-methoxy-2-(4-methylpiperazin-1-yl)phenyl]prop-2-enamide]
12 | < 50 | < 30 | C=CC(=O)Nc1cc(Nc2nc(-c3ccccc3NC)c3ccsc3n2)c(OC)cc1N1CCN(C)CC1 [Compound 43, N-[4-methoxy-5-[[4-[2-(methylamino)phenyl]thieno[2,3-d]pyrimidin-2-yl]amino]-2-(4-methylpiperazin-1-yl)phenyl]prop-2-enamide]
13 | < 50 | > 30 | C=CC(=O)Nc1cc(Nc2nc(-c3cn(C)c4ccccc34)c3sccc3n2)c(OC)cc1N1CCOCC1 [Compound 36, N-[4-methoxy-5-[[4-(1-methylindol-3-yl)thieno[3,2-d]pyrimidin-2-yl]amino]-2-morpholino-phenyl]prop-2-enamide]
14 | > 50 | > 30 | C=CC(=O)Nc1cc(Nc2nc(-c3c[nH]c4ccccc34)c3sccc3n2)c(OC)cc1N1CCC(N(C)C)CC1 [Compound 2, N-[2-[4-(dimethylamino)-1-piperidyl]-5-[[4-(1H-indol-3-yl)thieno[3,2-d]pyrimidin-2-yl]amino]-4-methoxy-phenyl]prop-2-enamide]
15 | < 50 | > 30 | C=CC(=O)Nc1cc(Nc2nc(-c3cccc(N(C)C)c3)c3sccc3n2)c(OC)cc1N1CCN(C)CC1 [Compound 24, N-[5-[[4-[3-(dimethylamino)phenyl]thieno[3,2-d]pyrimidin-2-yl]amino]-4-methoxy-2-(4-methylpiperazin-1-yl)phenyl]prop-2-enamide]
16 | < 50 | > 30 | C=CC(=O)Nc1cc(NC2=NC(c3cccc(NC)c3)C3SC=CC3=N2)c(OC)cc1N(C)CCN1CCOCC1 (stereo not drawn) [Compound 9, N-[4-methoxy-5-[[4-[3-(methylamino)phenyl]-4,4a-dihydrothieno[3,2-d]pyrimidin-2-yl]amino]-2-[methyl(2-morpholinoethyl)amino]phenyl]prop-2-enamide]
17 |  | > 30 | C=CC(=O)Nc1cc(Nc2nc(-c3cc[nH]c3)c3sccc3n2)c(OC)cc1N1CCN(C)CC1 [Compound 49, N-[4-methoxy-2-(4-methylpiperazin-1-yl)-5-[[4-(1H-pyrrol-3-yl)thieno[3,2-d]pyrimidin-2-yl]amino]phenyl]prop-2-enamide]
18 |  | < 30 | C=CC(=O)Nc1cc(Nc2nc(-c3ccccc3)c3ccsc3n2)c(OC)cc1N(C)CC [Compound 40, N-[2-[ethyl(methyl)amino]-4-methoxy-5-[(4-phenylthieno[2,3-d]pyrimidin-2-yl)amino]phenyl]prop-2-enamide]
19 |  | > 30 | C=CC(=O)Nc1cc(Nc2nc(-c3cccc4ccn(C)c34)c3sccc3n2)c(OC)cc1N1CCN(C)CC1 [Compound 44, N-[4-methoxy-5-[[4-(1-methylindol-7-yl)thieno[3,2-d]pyrimidin-2-yl]amino]-2-(4-methylpiperazin-1-yl)phenyl]prop-2-enamide]
20 |  | < 30 | C=CC(=O)Nc1cc(Nc2nc(-c3cc[nH]c3)c3ccsc3n2)c(OC)cc1N1CCN(C)CC1 [Compound 47, N-[4-methoxy-2-(4-methylpiperazin-1-yl)-5-[[4-(1H-pyrrol-3-yl)thieno[2,3-d]pyrimidin-2-yl]amino]phenyl]prop-2-enamide]
21 |  | < 30 | C=CC(=O)Nc1cc(Nc2nc(-c3ccc(NC)cc3)c3sccc3n2)c(OC)cc1N1CCN(C)CC1 [Compound 25, N-[4-methoxy-5-[[4-[4-(methylamino)phenyl]thieno[3,2-d]pyrimidin-2-yl]amino]-2-(4-methylpiperazin-1-yl)phenyl]prop-2-enamide]
22 |  | > 30 | C=CC(=O)Nc1cc(NC2=NC(c3cccc(NC)c3)C3SC=CC3=N2)c(OC)cc1OCCN1CCCCC1 (stereo not drawn) [Compound 15, N-[4-methoxy-5-[[4-[3-(methylamino)phenyl]-4,4a-dihydrothieno[3,2-d]pyrimidin-2-yl]amino]-2-[2-(1-piperidyl)ethoxy]phenyl]prop-2-enamide]
23 |  | > 30 | C=CC(=O)Nc1cc(Nc2nc(-c3c[nH]c4ccccc34)c3sccc3n2)c(OC)cc1N1CCC(NC)CC1 [Compound 3, N-[5-[[4-(1H-indol-3-yl)thieno[3,2-d]pyrimidin-2-yl]amino]-4-methoxy-2-[4-(methylamino)-1-piperidyl]phenyl]prop-2-enamide]
